Assay results as given in ChEMBL document CHEMBL1140311, “Design and synthesis of new nonsteroidal glucocorticoid modulators through application of an "agreement docking" method” (J Med Chem, 2005).

How the values were obtained:
Glucocorticoid receptor [1] = biological target: T1, Glucocorticoid receptor (Homo sapiens, UniProt P04150); test: Antagonist activity for Glucocorticoid receptor in MMTV transactivation assay in human A549 lung epithelial cells at 10 uM; assay type: functional, cell-based
T1 sequence (P04150 whole entry): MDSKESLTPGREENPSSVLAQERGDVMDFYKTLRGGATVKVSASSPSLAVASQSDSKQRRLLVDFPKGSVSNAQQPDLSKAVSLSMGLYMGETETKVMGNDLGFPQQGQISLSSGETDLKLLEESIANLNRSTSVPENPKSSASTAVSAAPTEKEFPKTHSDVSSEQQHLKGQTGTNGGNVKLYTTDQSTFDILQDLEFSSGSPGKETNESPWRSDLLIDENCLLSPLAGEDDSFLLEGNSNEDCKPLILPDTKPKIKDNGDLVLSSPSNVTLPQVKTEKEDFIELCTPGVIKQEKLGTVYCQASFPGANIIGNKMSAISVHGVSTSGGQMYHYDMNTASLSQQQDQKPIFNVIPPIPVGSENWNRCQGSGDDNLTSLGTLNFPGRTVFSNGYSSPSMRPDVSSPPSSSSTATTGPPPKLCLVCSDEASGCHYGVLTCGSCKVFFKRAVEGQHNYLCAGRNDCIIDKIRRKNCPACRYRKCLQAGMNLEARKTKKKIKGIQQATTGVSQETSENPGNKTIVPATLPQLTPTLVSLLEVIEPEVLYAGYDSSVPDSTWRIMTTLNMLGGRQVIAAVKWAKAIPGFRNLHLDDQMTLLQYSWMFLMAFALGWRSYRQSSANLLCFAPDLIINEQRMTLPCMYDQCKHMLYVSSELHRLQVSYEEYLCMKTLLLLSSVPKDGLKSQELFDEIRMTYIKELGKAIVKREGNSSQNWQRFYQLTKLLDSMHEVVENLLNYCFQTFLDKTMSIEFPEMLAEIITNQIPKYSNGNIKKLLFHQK

[2] = Binding affinity for glucocorticoid receptor
[3] = biological target: T2, Glucocorticoid receptor (Homo sapiens) (UniProt P04150); test: Glucocorticoid receptor mediated transrepression of NFkB reporter gene in human A549 lung epithelial cells at 10 uM; assay type: functional, cell-based
T2 sequence (whole entry): T1 sequence (P04150 whole entry)

Glucocorticoid receptor [4] = biological target: T1, Glucocorticoid receptor; test: Glucocorticoid receptor mediated transrepression of NFkB reporter gene in human A549 lung epithelial cells; assay type: functional, cell-based

SMILES | IC50 (Glucocorticoid receptor [1]) | Log IC50 [2] | Max inhibition [3] | IC50 (Glucocorticoid receptor [4])
Cc1noc(=O)c2ccc(NC(=O)C(O)(CC3CCc4ccccc43)C(F)(F)F)cc12 (configuration not stated) | 4790 nM | -7.81 | 73% | –
Cc1noc(=O)c2ccc(NC(=O)C(O)(CC3CCCc4ccccc43)C(F)(F)F)cc12 (stereo in doubt; 9d (D2E2)) [listing 1 of 2 here] | 3890 nM | -7.15 | – | –
Cc1noc(=O)c2ccc(NC(=O)C(O)(CC3CCCc4ccccc43)C(F)(F)F)cc12 (stereo in doubt; 9e (D1E1)) [listing 1 of 2 here] | 562 nM | -8.08 | – | –
Cc1noc(=O)c2ccc(NC(=O)C(O)(CC3CCCc4ccccc43)C(F)(F)F)cc12 (stereo in doubt; 9e (D1E1)) [listing 2 of 2 here] | – | – | 51% | –
Cc1noc(=O)c2ccc(NC(=O)C(O)(CC3CCCCc4ccccc43)C(F)(F)F)cc12 (stereo in doubt; 15a (D1E2)) [listing 2 of 2 here] | – | – | 60% | –

Further lines, results first:

IC50 (Glucocorticoid receptor [1]) | Log IC50 [2] | Max inhibition [3] | IC50 (Glucocorticoid receptor [4]) | SMILES
– | – | 23% | – | Cc1noc(=O)c2ccc(NC(=O)C(O)(CC3CCCc4ccccc43)C(F)(F)F)cc12 (stereo in doubt; 9d (D2E2)) [listing 2 of 2 here]
708 nM | -8.57 | – | 145 nM | Cc1noc(=O)c2ccc(NC(=O)C(O)(CC3CCCCc4ccccc43)C(F)(F)F)cc12 (stereo in doubt; 15a (D1E2)) [listing 1 of 2 here]
1000 nM | -7.75 | – | – | Cc1noc(=O)c2ccc(NC(=O)C(O)(CC3CCCCc4ccccc43)C(F)(F)F)cc12 (stereo in doubt; 15b (D2E1)) [listing 1 of 2 here]
– | – | 24% | – | Cc1noc(=O)c2ccc(NC(=O)C(O)(CC3CCCCc4ccccc43)C(F)(F)F)cc12 (stereo in doubt; 15b (D2E1)) [listing 2 of 2 here]
– | -8.1 | – | – | C[C@@H]1C[C@H]2[C@@H]3CCC4=CC(=O)C=C[C@]4(C)[C@@]3(F)[C@@H](O)C[C@]2(C)[C@@]1(O)C(=O)CO [DEXAMETHASONE]
